What was measured:
[1] = system: green foxtail; assay: Test Example 5: herbicidal effect by foliage application, plastic box (Table 20, symbol G); format: in vivo, green foxtail (Setaria viridis); settings: foliage application, 320 g/ha, evaluated three weeks after application
Procedure, shortened: (§1)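 Plants sown in sterilized diluvial soil and grown 14 days in a greenhouse at 25° C to 30° C, then sprayed on the foliage with the compound's emulsion diluted in water to a predetermined herbicide amount. Injury to weeds and crops scored three weeks after application on a visual rating scale.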

[2] = system: chickweed; assay: Test Example 5: herbicidal effect by foliage application, plastic box (Table 20, symbol P); format: in vivo, common chickweed (Stellaria media); settings: foliage application, 320 g/ha, evaluated three weeks after application
Procedure, shortened: as §1

[3] = system: barnyard grass; assay: Test Example 5: herbicidal effect by foliage application, plastic box (Table 20, symbol H); format: in vivo, barnyard grass (Echinochloa crus-galli); settings: foliage application, 320 g/ha, evaluated three weeks after application
Procedure, shortened: as §1

[4] = system: persian speedwell; assay: Test Example 4: herbicidal effect by soil treatment (Table 19, symbol R); format: in vivo, Persian speedwell (Veronica persica); settings: 320 g/ha
Procedure, shortened: (§2)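 Seeds were sown in sterilized diluvial soil and covered with about 1.5 cm of soil. An emulsion formulation diluted with water to a predetermined herbicide amount was sprayed evenly onto the soil surface. Plants grew in a greenhouse at 25° C. to 30° C., and the effect was scored three weeks after application using criteria from an earlier test.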

[5] = system: redroot pigweed; assay: Test Example 5: herbicidal effect by foliage application, plastic box (Table 20, symbol N); format: in vivo, redroot pigweed (Amaranthus retroflexus); settings: foliage application, 320 g/ha, evaluated three weeks after application
Procedure, shortened: as §1

[6] = system: rice flat sedge; assay: Test Example 3: herbicidal effect by foliage application, Wagner pot (Table 18, symbol E); format: in vivo, rice flat sedge (Cyperus iria); settings: 320 g/ha
Procedure, shortened: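 Plants were sown in alluvial soil held under 0.1–0.5 cm standing water and grown 14 days in a greenhouse at 25–30 °C. An emulsifiable formulation, water-diluted to the set dose, was then sprayed onto the foliage, and effects were scored three weeks later using previously defined criteria.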

[7] = system: oval-leafed pondweed; assay: Test Example 2: herbicidal activity, application during weed generation under submerged conditions (Table 17, symbol C); format: in vivo, oval-leafed pondweed (Monochoria vaginalis); settings: AAH 320 g/ha; application during weed generation, submerged conditions
Procedure, shortened: (§3)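 Alluvial soil in Wagner pots was flooded to 4 cm depth and sown with the three weeds together; pots were kept in a greenhouse at 25° C. to 30° C. At the one to two leaf stage, an emulsion formulation diluted in water to a set rate went onto the water surface; scored three weeks later.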

[8] = system: Italian ryegrass; assay: Test Example 4: herbicidal effect by soil treatment (Table 19, symbol K); format: in vivo, Italian ryegrass (Lolium multiflorum); settings: 320 g/ha
Procedure, shortened: as §2

[9] = system: velvetleaf; assay: Test Example 5: herbicidal effect by foliage application, plastic box (Table 20, symbol M); format: in vivo, velvetleaf (Abutilon theophrasti); settings: foliage application, 320 g/ha, evaluated three weeks after application
Procedure, shortened: as §1

[10] = system: Japanese bulrush; assay: Test Example 2: herbicidal activity, application during weed generation under submerged conditions (Table 17, symbol B); format: in vivo, Japanese bulrush (Schoenoplectus juncoides); settings: AAH 320 g/ha; application during weed generation, submerged conditions
Procedure, shortened: as §3

[11] = system: oval-leafed pondweed; assay: Test Example 1: herbicidal activity, application before weed generation under submerged conditions (Table 16, symbol C); format: in vivo, oval-leafed pondweed (Monochoria vaginalis); settings: 320 g/ha applied herbicide
Procedure, shortened: (§4)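 Submerged Wagner pots (alluvial soil, 4 cm water) sown with weed seeds and planted with 2.5-leaf rice seedlings; emulsifiable concentrate diluted in water applied to water surface on sowing day. Held in greenhouse at 25-30 °C; injury scored 0-5 by herbicidal rate after three weeks.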

[12] = system: windgrass; assay: Test Example 4: herbicidal effect by soil treatment (Table 19, symbol L); format: in vivo, windgrass (Apera spica-venti); settings: 320 g/ha
Procedure, shortened: as §2

[13] = system: southern crabgrass; assay: Test Example 5: herbicidal effect by foliage application, plastic box (Table 20, symbol F); format: in vivo, southern crabgrass (Digitaria ciliaris); settings: foliage application, 320 g/ha, evaluated three weeks after application
Procedure, shortened: as §1

[14] = system: persian speedwell; assay: Test Example 5: herbicidal effect by foliage application, plastic box (Table 20, symbol R); format: in vivo, Persian speedwell (Veronica persica); settings: foliage application, 320 g/ha, evaluated three weeks after application
Procedure, shortened: as §1

[15] = system: wild oat; assay: Test Example 4: herbicidal effect by soil treatment (Table 19, symbol I); format: in vivo, wild oat (Avena fatua); settings: 320 g/ha
Procedure, shortened: as §2

[16] = system: late watergrass; assay: Test Example 1: herbicidal activity, application before weed generation under submerged conditions (Table 16, symbol A); format: in vivo, late watergrass (Echinochloa oryzicola); settings: 320 g/ha applied herbicide
Procedure, shortened: as §4

Row | Compound | herbicidal effect on G: green foxtail [1] | herbicidal effect on P: chickweed [2] | herbicidal effect on H: barnyard grass [3] | herbicidal effect rating, R: persian speedwell [4] | herbicidal effect on N: redroot pigweed [5] | herbicidal effect on E (rice flat sedge), rating 0-5 [6] | herbicidal effect rating, C: oval-leafed pondweed [7] | herbicidal effect rating, K: Italian ryegrass [8] | herbicidal effect on M: velvetleaf [9] | herbicidal effect rating, B: Japanese bulrush [10] | Herbicidal effect on C: oval-leafed pondweed (grade 0-5) [11] | herbicidal effect rating, L: windgrass [12] | herbicidal effect on F: southern crabgrass [13] | herbicidal effect on R: persian speedwell [14] | herbicidal effect rating, I: wild oat [15] | Herbicidal effect on A: late watergrass (grade 0-5) [16]
1 | C#CCOc1ccc(-c2sc3ccc(F)cc3c2-c2c(OCOCCOC)c(C)nn(C)c2=O)cc1 [2-055] | 5 (Herbicidal rate of 90% or more (almost completely withered)) | 5 (Herbicidal rate of 90% or more (almost completely withered)) | 4 (Herbicidal rate of 70% or more and less than 90%) | 5 (Herbicidal rate of 90% or more (almost completely withered)) | 5 (Herbicidal rate of 90% or more (almost completely withered)) | 4 (Herbicidal rate of 70% or more and less than 90%) | 3 (Herbicidal rate of 40% or more and less than 70%) | 0 (Herbicidal rate of 5% or less (almost no effect)) | 5 (Herbicidal rate of 90% or more (almost completely withered)) | 3 (Herbicidal rate of 40% or more and less than 70%) | 1 (Herbicidal rate of 5% or more and less than 20%) | 0 (Herbicidal rate of 5% or less (almost no effect)) | 1 (Herbicidal rate of 5% or more and less than 20%) | 5 (Herbicidal rate of 90% or more (almost completely withered)) | 0 (Herbicidal rate of 5% or less (almost no effect)) | 0 (Herbicidal rate of 5% or less (almost no effect))
2 | COCCOc1ccc(-c2sc3ccc(F)cc3c2-c2c(O)c(C)nn(C)c2=O)cc1 [2-056] | 5 (Herbicidal rate of 90% or more (almost completely withered)) | 5 (Herbicidal rate of 90% or more (almost completely withered)) | 5 (Herbicidal rate of 90% or more (almost completely withered)) | 5 (Herbicidal rate of 90% or more (almost completely withered)) | 5 (Herbicidal rate of 90% or more (almost completely withered)) | 5 (Herbicidal rate of 90% or more (almost completely withered)) | 3 (Herbicidal rate of 40% or more and less than 70%) | 0 (Herbicidal rate of 5% or less (almost no effect)) | 5 (Herbicidal rate of 90% or more (almost completely withered)) | 3 (Herbicidal rate of 40% or more and less than 70%) | 5 (Herbicidal rate of 90% or more (almost completely withered)) | 0 (Herbicidal rate of 5% or less (almost no effect)) | 5 (Herbicidal rate of 90% or more (almost completely withered)) | 5 (Herbicidal rate of 90% or more (almost completely withered)) | 0 (Herbicidal rate of 5% or less (almost no effect)) | 3 (Herbicidal rate of 40% or more and less than 70%)
3 | Cc1nn(C)c(=O)c(-c2c(-c3ccc(OCC4CC4)cc3)sc3ccc(F)cc23)c1O [2-060] | 3 (Herbicidal rate of 40% or more and less than 70%) | 5 (Herbicidal rate of 90% or more (almost completely withered)) | 3 (Herbicidal rate of 40% or more and less than 70%) | 5 (Herbicidal rate of 90% or more (almost completely withered)) | 5 (Herbicidal rate of 90% or more (almost completely withered)) | 5 (Herbicidal rate of 90% or more (almost completely withered)) | 1 (Herbicidal rate of 5% or more and less than 20%) | 0 (Herbicidal rate of 5% or less (almost no effect)) | 4 (Herbicidal rate of 70% or more and less than 90%) | 3 (Herbicidal rate of 40% or more and less than 70%) | 4 (Herbicidal rate of 70% or more and less than 90%) | 0 (Herbicidal rate of 5% or less (almost no effect)) | 4 (Herbicidal rate of 70% or more and less than 90%) | 5 (Herbicidal rate of 90% or more (almost completely withered)) | 0 (Herbicidal rate of 5% or less (almost no effect)) | 0 (Herbicidal rate of 5% or less (almost no effect))

From patent US20230085307A1, “PYRIDAZINONE COMPOUND AND HERBICIDE” (NISSAN CHEMICAL CORPORATION, priority 2019, published 2023)
